Values joined by “and” are separate entries in the source; they are usually repeats but may differ in a detail not shown here. Equal entries are not always repeated. Toxic doses and inconclusive results are not listed. No stated cut-off is given here; in the data, active means T/C of 150% or more; inactive means T/C below 125%.
Test system: L1210 leukemia ip in BDF1 mice, survival T/C
Assay: NCI In Vivo Anticancer Drug Screen. Data for tumor model L1210 Leukemia (intraperitoneal) in B6D2F1 (BDF1) mice
Details: endpoint: mean survival time, higher = longer survival
Procedure, shortened: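 Survival endpoint. Drug-treated group vs vehicle group, expressed as T divided by C. Tumor passaged by transplantation.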

Measured: T/C

O=NN(CCF)C(=O)NC1CCCCC1
inactive: dose: 0.33 mg/kg/injection, schedule: Q#B X003 (ip), vehicle: other 109 % of control | dose: 0.66 mg/kg/injection, schedule: Q#B X003 (ip), vehicle: other 119 % of control | dose: 0.93 mg/kg/injection, schedule: Q01DX001 (ip), vehicle: carboxymethylcellulose (CMC) 102 % of control | dose: 1.33 mg/kg/injection, schedule: Q#B X003 (ip), vehicle: other 121 % of control | dose: 1.56 mg/kg/injection, schedule: Q03HX032 (ip), vehicle: carboxymethylcellulose (CMC) 111 % of control | dose: 1.87 mg/kg/injection, schedule: Q01DX001 (ip), vehicle: carboxymethylcellulose (CMC) 102 % of control | dose: 2.97 mg/kg/injection, schedule: Q01DX015 (ip), vehicle: other 96 % of control and 117 % of control | dose: 3.12 mg/kg/injection, schedule: Q01DX001 (sc), vehicle: other 122 % of control | dose: 3.75 mg/kg/injection, schedule: Q01DX001 (ip), vehicle: carboxymethylcellulose (CMC) 112 % of control | dose: 5.0 mg/kg/injection, schedule: Q01DX001 (ip), vehicle: carboxymethylcellulose (CMC) 108 % of control | dose: 6.25 mg/kg/injection, schedule: Q01DX001 (sc), vehicle: other 117 % of control | dose: 6.25 mg/kg/injection, schedule: Q01DX013 (ip), vehicle: carboxymethylcellulose (CMC) 122 % of control | dose: 6.25 mg/kg/injection, schedule: Q## X006 (ip), vehicle: carboxymethylcellulose (CMC) 111 % of control | dose: 32.0 mg/kg/injection, schedule: Q## X032 (ip), vehicle: other 105 % of control | dose: 48.0 mg/kg/injection, schedule: Q## X032 (ip), vehicle: other 114 % of control and 120 % of control | dose: 50.0 mg/kg/injection, schedule: Q## X006 (oral), vehicle: carboxymethylcellulose (CMC) 116 % of control | dose: 100.0 mg/kg/injection, schedule: Q04DX004 (oral), vehicle: carboxymethylcellulose (CMC) 122 % of control
active: dose: 3.12 mg/kg/injection, schedule: Q03HX008 (ip), vehicle: carboxymethylcellulose (CMC) 188 % of control | dose: 3.12 mg/kg/injection, schedule: Q03HX032 (ip), vehicle: carboxymethylcellulose (CMC) 416 % of control | dose: 3.12 mg/kg/injection, schedule: Q03HX032 (oral), vehicle: carboxymethylcellulose (CMC) 177 % of control | dose: 6.0 mg/kg/injection, schedule: Q02DX008 (ip), vehicle: other 157 % of control and 160 % of control | dose: 6.25 mg/kg/injection, schedule: Q03HX008 (oral), vehicle: carboxymethylcellulose (CMC) 605 % of control | dose: 6.25 mg/kg/injection, schedule: Q03HX032 (oral), vehicle: carboxymethylcellulose (CMC) 288 % of control | dose: 6.25 mg/kg/injection, schedule: Q## X006 (oral), vehicle: carboxymethylcellulose (CMC) 305 % of control | dose: 6.75 mg/kg/injection, schedule: Q01DX015 (ip), vehicle: other 448 % of control and 489 % of control | dose: 9.0 mg/kg/injection, schedule: Q02DX008 (ip), vehicle: other 345 % of control and 397 % of control | dose: 10.0 mg/kg/injection, schedule: Q01DX015 (ip), vehicle: other 424 % of control and 524 % of control | dose: 12.0 mg/kg/injection, schedule: Q## X004 (ip), vehicle: other 370 % of control and 608 % of control | dose: 12.5 mg/kg/injection, schedule: Q01DX001 (ip), vehicle: carboxymethylcellulose (CMC) 183 % of control | dose: 12.5 mg/kg/injection, schedule: Q01DX001 (sc), vehicle: other 157 % of control | dose: 12.5 mg/kg/injection, schedule: Q01DX013 (ip), vehicle: carboxymethylcellulose (CMC) 183 % of control | dose: 12.5 mg/kg/injection, schedule: Q03HX032 (oral), vehicle: carboxymethylcellulose (CMC) 255 % of control | dose: 12.5 mg/kg/injection, schedule: Q## X006 (ip), vehicle: carboxymethylcellulose (CMC) 155 % of control | dose: 13.5 mg/kg/injection, schedule: Q01DX001 (ip), vehicle: other 187 % of control | dose: 13.5 mg/kg/injection, schedule: Q01DX001 (oral), vehicle: other 178 % of control and 183 % of control | dose: 13.5 mg/kg/injection, schedule: Q02DX008 (ip), vehicle: other 456 % of control and 470 % of control | dose: 13.5 mg/kg/injection, schedule: Q## X001 (ip), vehicle: other 247 % of control | dose: 13.5 mg/kg/injection, schedule: Q## X001 (oral), vehicle: other 253 % of control | dose: 14.0 mg/kg/injection, schedule: Q## X032 (ip), vehicle: other 341 % of control | dose: 15.0 mg/kg/injection, schedule: Q01DX001 (ip), vehicle: carboxymethylcellulose (CMC) 174 % of control | dose: 15.0 mg/kg/injection, schedule: Q01DX015 (ip), vehicle: other 158 % of control and 438 % of control | dose: 16.2 mg/kg/injection, schedule: Q01DX001 (ip), vehicle: other 314 % of control | dose: 18.0 mg/kg/injection, schedule: Q## X004 (ip), vehicle: other 601 % of control and 682 % of control | dose: 20.0 mg/kg/injection, schedule: Q01DX001 (ip), vehicle: carboxymethylcellulose (CMC) 250 % of control | dose: 20.0 mg/kg/injection, schedule: Q02DX008 (ip), vehicle: other 380 % of control and 649 % of control | dose: 22.0 mg/kg/injection, schedule: Q## X032 (ip), vehicle: other 240 % of control | dose: 23.0 mg/kg/injection, schedule: Q01DX001 (ip), vehicle: other 238 % of control | dose: 25.0 mg/kg/injection, schedule: Q01DX001 (ip), vehicle: carboxymethylcellulose (CMC) 192 % of control | dose: 25.0 mg/kg/injection, schedule: Q01DX001 (oral), vehicle: carboxymethylcellulose (CMC) 616 % of control and 733 % of control | dose: 25.0 mg/kg/injection, schedule: Q01DX001 (sc), vehicle: carboxymethylcellulose (CMC) 216 % of control | dose: 25.0 mg/kg/injection, schedule: Q01DX001 (sc), vehicle: other 317 % of control | dose: 25.0 mg/kg/injection, schedule: Q01DX005 (oral), vehicle: carboxymethylcellulose (CMC) 344 % of control | dose: 25.0 mg/kg/injection, schedule: Q## X006 (ip), vehicle: carboxymethylcellulose (CMC) 733 % of control | dose: 25.0 mg/kg/injection, schedule: Q## X006 (oral), vehicle: carboxymethylcellulose (CMC) 355 % of control | dose: 27.0 mg/kg/injection, schedule: Q01DX001 (ip), vehicle: other 241 % of control and 302 % of control | dose: 27.0 mg/kg/injection, schedule: Q01DX001 (oral), vehicle: other 264 % of control and 289 % of control | dose: 27.0 mg/kg/injection, schedule: Q## X001 (ip), vehicle: other 447 % of control | dose: 27.0 mg/kg/injection, schedule: Q## X001 (oral), vehicle: other 280 % of control and 426 % of control | dose: 27.0 mg/kg/injection, schedule: Q## X004 (ip), vehicle: other 412 % of control and 594 % of control | dose: 30.0 mg/kg/injection, schedule: Q01DX001 (ip), vehicle: carboxymethylcellulose (CMC) 322 % of control | dose: 30.0 mg/kg/injection, schedule: Q02DX008 (ip), vehicle: other 153 % of control and 256 % of control | dose: 36.0 mg/kg/injection, schedule: Q01DX001 (ip), vehicle: other 529 % of control | dose: 40.0 mg/kg/injection, schedule: Q## X004 (ip), vehicle: other 209 % of control and 600 % of control | dose: 41.0 mg/kg/injection, schedule: Q## X001 (oral), vehicle: other 383 % of control | dose: 45.0 mg/kg/injection, schedule: Q01DX001 (ip), vehicle: carboxymethylcellulose (CMC) 344 % of control | dose: 50.0 mg/kg/injection, schedule: Q01DX001 (oral), vehicle: carboxymethylcellulose (CMC) 716 % of control | dose: 50.0 mg/kg/injection, schedule: Q01DX001 (sc), vehicle: carboxymethylcellulose (CMC) 733 % of control | dose: 50.0 mg/kg/injection, schedule: Q01DX005 (oral), vehicle: carboxymethylcellulose (CMC) 200 % of control | dose: 50.0 mg/kg/injection, schedule: Q04DX004 (ip), vehicle: carboxymethylcellulose (CMC) 183 % of control | dose: 50.0 mg/kg/injection, schedule: Q04DX004 (oral), vehicle: carboxymethylcellulose (CMC) 205 % of control | dose: 50.0 mg/kg/injection, schedule: Q## X006 (ip), vehicle: carboxymethylcellulose (CMC) 733 % of control | dose: 54.0 mg/kg/injection, schedule: Q01DX001 (ip), vehicle: carboxymethylcellulose (CMC) 282 % of control | dose: 54.0 mg/kg/injection, schedule: Q01DX001 (oral), vehicle: other 352 % of control | dose: 54.0 mg/kg/injection, schedule: Q## X001 (ip), vehicle: other 421 % of control | dose: 54.0 mg/kg/injection, schedule: Q## X001 (oral), vehicle: other 226 % of control | dose: 60.0 mg/kg/injection, schedule: Q## X004 (ip), vehicle: other 200 % of control | dose: 67.0 mg/kg/injection, schedule: Q01DX001 (ip), vehicle: carboxymethylcellulose (CMC) 289 % of control | dose: 100.0 mg/kg/injection, schedule: Q01DX001 (oral), vehicle: carboxymethylcellulose (CMC) 166 % of control and 244 % of control | dose: 200.0 mg/kg/injection, schedule: Q01DX001 (oral), vehicle: carboxymethylcellulose (CMC) 155 % of control

From PubChem BioAssay AID248 (DTP/NCI, 2004)
